Assay results from patent US20240368135A1 (VERTEX PHARMACEUTICALS INCORPORATED, priority 2021, published 2024).
pIC50: −log10 of the molar value. Like-named read-outs stand apart in the source and are kept apart here.

Molecular target: human NaV 1.8 (Homo sapiens, UniProt Q9Y5Y9)
Experiment: E-VIPR assay detecting and measuring NaV inhibition properties
Type: cell-based
Details: HEK cells expressing truncated human NaV 1.8
Summary of the method: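 HEK cells expressing truncated, fully active human NaV1.8, with KIR2.1 BacMam co-transduction, were loaded with CC2-DMPE/DiSBAC6(3) voltage-sensing dyes for 20 min at room temperature. Compounds were tested in 11-point 3-fold dilutions (300 nM top final), optionally with 25% human serum, under electrical stimulation with FRET read-out.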

[1] = no human serum, read-out: IC50 in the E-VIPR Assay
[2] = in the presence of human serum (compound numbers followed by *), read-out: IC50 in the E-VIPR Assay, performed in the presence of human serum

Chain of human NaV 1.8 (Q9Y5Y9 126-399 limits assumed): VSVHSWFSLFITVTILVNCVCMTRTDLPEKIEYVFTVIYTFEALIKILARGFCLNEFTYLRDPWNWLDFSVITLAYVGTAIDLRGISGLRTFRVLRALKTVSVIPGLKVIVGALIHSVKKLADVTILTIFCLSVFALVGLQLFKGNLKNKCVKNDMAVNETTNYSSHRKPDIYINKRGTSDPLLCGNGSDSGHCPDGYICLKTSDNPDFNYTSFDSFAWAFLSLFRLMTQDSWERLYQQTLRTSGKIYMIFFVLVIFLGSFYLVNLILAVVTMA
Chain of human NaV 1.8 (Q9Y5Y9 660-890 limits assumed): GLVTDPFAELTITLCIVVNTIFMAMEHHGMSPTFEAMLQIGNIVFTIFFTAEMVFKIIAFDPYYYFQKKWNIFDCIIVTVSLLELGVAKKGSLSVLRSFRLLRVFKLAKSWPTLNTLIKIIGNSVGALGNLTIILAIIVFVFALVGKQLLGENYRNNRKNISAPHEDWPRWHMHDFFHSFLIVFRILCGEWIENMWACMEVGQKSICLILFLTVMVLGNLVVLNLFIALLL
Chain of human NaV 1.8 (Q9Y5Y9 1148-1722 limits assumed): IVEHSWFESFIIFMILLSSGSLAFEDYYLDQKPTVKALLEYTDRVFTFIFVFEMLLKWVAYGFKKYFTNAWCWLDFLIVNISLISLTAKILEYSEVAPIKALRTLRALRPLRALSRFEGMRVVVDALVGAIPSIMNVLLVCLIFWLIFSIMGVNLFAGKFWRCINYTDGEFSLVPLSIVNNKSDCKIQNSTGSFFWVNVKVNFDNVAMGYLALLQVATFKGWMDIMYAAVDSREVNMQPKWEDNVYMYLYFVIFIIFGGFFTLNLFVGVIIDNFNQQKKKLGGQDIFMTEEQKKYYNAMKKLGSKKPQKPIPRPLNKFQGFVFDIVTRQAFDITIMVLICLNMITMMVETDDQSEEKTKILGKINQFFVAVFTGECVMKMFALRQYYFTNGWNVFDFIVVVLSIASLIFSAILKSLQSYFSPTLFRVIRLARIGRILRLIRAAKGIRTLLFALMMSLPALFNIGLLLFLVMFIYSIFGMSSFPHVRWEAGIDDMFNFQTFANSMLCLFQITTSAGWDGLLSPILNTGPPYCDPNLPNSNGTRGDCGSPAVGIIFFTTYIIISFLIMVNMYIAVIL

Structure (SMILES) | pIC50 [1] | pIC50 [2]
C[C@@H]1[C@H](c2ccc(F)c(F)c2OC(F)F)[C@@H](C(=O)Nc2ccnc(CO)c2)O[C@]1(C)C(F)(F)F (single isomer, unassigned) [Compound 91] | ≤ 6.00 | 
COc1c([C@@H]2[C@@H](C(=O)Nc3ccnc(C(O)CO)c3)O[C@](C)(C(F)(F)F)[C@@H]2C)ccc(F)c1C (single isomer, unassigned) [Compound 136] |  | ≤ 6.00
C[C@H]1[C@@H](c2ccc(F)c(F)c2OCCO)[C@H](C(=O)Nc2ncnc3c2cnn3C(C)(C)C)O[C@@]1(C)C(F)(F)F [Compound 563, (2R,3S,4S,5R)-N-(1-(tert-butyl)-1H-pyrazolo[3,4-d]pyrimidin-4-yl)-3-(3,4-difluoro-2-(2-hydroxyethoxy)phenyl)-4,5-dimethyl-5-(trifluoromethyl)tetrahydrofuran-2-carboxamide] | ≤ 6.00 | 
COc1c(C2C(C(=O)Nc3cc(CO)ncc3C)OC(C)(C(F)(F)F)C2C)ccc(F)c1F (stereo not drawn) [Compound 243, 3-(3,4-difluoro-2-methoxy-phenyl)-N-[2-(hydroxymethyl)-5-methyl-4-pyridyl]-4,5-dimethyl-5-(trifluoromethyl)tetrahydrofuran-2-carboxamide] |  | 7.00 to 8.00
COc1c([C@H]2[C@H](C(=O)Nc3cc(C)nn3CCC#N)O[C@@](C)(C(F)(F)F)[C@H]2C)ccc(F)c1F [Compound 292, (2R,3S,4S,5R)-N-(1-(2-cyanoethyl)-3-methyl-1H-pyrazol-5-yl)-3-(3,4-difluoro-2-methoxyphenyl)-4,5-dimethyl-5-(trifluoromethyl)tetrahydrofuran-2-carboxamide] | ≤ 6.00 | 
COc1c([C@H]2[C@H](C(=O)NC3CC(F)(F)C3)O[C@@](C)(C(F)(F)F)[C@H]2C)ccc(F)c1F [Compound 280, (2R,3S,4S,5R)-3-(3,4-difluoro-2-methoxyphenyl)-N-(3,3-difluorocyclobutyl)-4,5-dimethyl-5-(trifluoromethyl)tetrahydrofuran-2-carboxamide] | 6.00 to 7.00 | 
COc1c([C@H]2[C@H](C(=O)Nc3cc(C4(N)CCOC4)ncc3F)O[C@@](C)(C(F)(F)F)[C@H]2C)ccc(F)c1F (single isomer, unassigned) [Compound 348, rel-(2R*,3S*,4S*,5R*)-N-(2-(3-aminotetrahydrofuran-3-yl)-5-fluoropyridin-4-yl)-3-(3,4-difluoro-2-methoxyphenyl)-4,5-dimethyl-5-(trifluoromethyl)-tetrahydrofuran-2-carboxamide] | 7.00 to 8.00 | 
COc1c([C@H]2[C@H](C(=O)NC3CCN(C(C)=O)C3)O[C@@](C)(C(F)(F)F)[C@H]2C)ccc(F)c1F (stereo partly drawn) [Compound 298, (2R,3S,4S,5R)-N-(1-acetylpyrrolidin-3-yl)-3-(3,4-difluoro-2-methoxyphenyl)-4,5-dimethyl-5-(trifluoromethyl)tetrahydrofuran-2-carboxamide] | ≤ 6.00 | 

The remaining lines, values ahead:

pIC50 [1] | pIC50 [2] | Structure (SMILES)
7.00 to 8.00 |  | COc1c([C@H]2[C@H](C(=O)Nc3ccc(S(C)(=N)=O)nc3)O[C@@](C)(C(F)(F)F)[C@H]2C)ccc(F)c1F (single isomer, unassigned) [Compound 337, rel-(2R*,3S*,4S*,5R*)-3-(3,4-difluoro-2-methoxyphenyl)-4,5-dimethyl-N-(6-(S-methylsulfonimidoyl)-pyridin-3-yl)-5-(trifluoromethyl)-tetrahydrofuran-2-carboxamide]
7.00 to 8.00 |  | Cc1nn(C(F)F)cc1NC(=O)[C@@H]1O[C@@](C)(C(F)(F)F)[C@@H](C)[C@H]1c1ccc(F)c(F)c1CCO [Compound 677, (2R,3S,4S,5R)-3-(3,4-difluoro-2-(2-hydroxyethyl)phenyl)-N-(1-(difluoromethyl)-3-methyl-1H-pyrazol-4-yl)-4,5-dimethyl-5-(trifluoromethyl)tetrahydrofuran-2-carboxamide]
> 8.00 |  | COc1c(C2C(C(=O)Nc3ccnc(S(C)(=N)=O)c3)OC(C)(C(F)(F)F)C2C)ccc(F)c1F (single isomer, unassigned) [Compound 54, 3-(3,4-difluoro-2-methoxy-phenyl)-4,5-dimethyl-N-[2-(methylsulfonimidoyl)-4-pyridyl]-5-(trifluoromethyl)tetrahydrofuran-2-carboxamide]
> 8.00 |  | COc1c([C@H]2[C@H](C(=O)Nc3cnc(C(N)=O)nc3)O[C@@](C)(C(F)(F)F)[C@H]2C)ccc(F)c1C(F)F (stereo in doubt) [Compound 173, rel-5-((2R,3S,4S,5R)-3-(3-(difluoromethyl)-4-fluoro-2-methoxyphenyl)-4,5-dimethyl-5-(trifluoromethyl)tetrahydrofuran-2-carboxamido)pyrimidine-2-carboxamide]
> 8.00 |  | CCOc1c([C@H]2[C@H](C(=O)Nc3ccnc(C(O)CO)c3)O[C@@](C)(C(F)(F)F)[C@H]2C)ccc(F)c1F (single isomer, unassigned) [Compound 104, rel-(2R*,3S*,4S*,5R*)-N-(2-(1,2-dihydroxyethyl)pyridin-4-yl)-3-(2-ethoxy-3,4-difluorophenyl)-4,5-dimethyl-5-(trifluoromethyl)tetrahydrofuran-2-carboxamide]
7.00 to 8.00 |  | COc1c([C@H]2[C@H](C(=O)Nc3cc(C4CNCCO4)ncc3F)O[C@@](C)(C(F)(F)F)[C@H]2C)ccc(F)c1F (single isomer, unassigned) [Compound 350, rel-(2R*,3S*,4S*,5R*)-3-(3,4-difluoro-2-methoxyphenyl)-N-(5-fluoro-2-(morpholin-2-yl)pyridin-4-yl)-4,5-dimethyl-5-(trifluoromethyl)-tetrahydrofuran-2-carboxamide]
> 8.00 |  | COCCCOc1c([C@H]2[C@H](C(=O)Nc3ccnc(CO)c3)O[C@@](C)(C(F)(F)F)[C@H]2C)ccc(F)c1F [Compound 642, (2R,3S,4S,5R)-3-(3,4-difluoro-2-(3-methoxypropoxy)phenyl)-N-(2-(hydroxymethyl)pyridin-4-yl)-4,5-dimethyl-5-(trifluoromethyl)tetrahydrofuran-2-carboxamide]
7.00 to 8.00 |  | COc1c([C@H]2[C@H](C(=O)Nc3ccnc(N4CCC(N(C)C)C4=O)c3)O[C@@](C)(C(F)(F)F)[C@H]2C)ccc(F)c1F (single isomer, unassigned) [Compound 507, rel-(2R*,3S*,4S*,5R*)-3-(3,4-difluoro-2-methoxyphenyl)-N-(2-(3-(dimethylamino)-2-oxopyrrolidin-1-yl)pyridin-4-yl)-4,5-dimethyl-5-(trifluoromethyl)tetrahydrofuran-2-carboxamide]
7.00 to 8.00 |  | C[C@H]1[C@@H](c2ccc(F)c(F)c2OCCO)[C@H](C(=O)Nc2ccn(C)c(=O)c2)O[C@@]1(C)C(F)(F)F [Compound 541, (2R,3S,4S,5R)-3-(3,4-difluoro-2-(2-hydroxyethoxy)phenyl)-4,5-dimethyl-N-(1-methyl-2-oxo-1,2-dihydropyridin-4-yl)-5-(trifluoromethyl)tetrahydrofuran-2-carboxamide]
7.00 to 8.00 |  | C[C@H]1[C@@H](c2ccc(F)c(F)c2OCC2(F)COC2)[C@H](C(=O)Nc2ccnc(CO)c2)O[C@@]1(C)C(F)(F)F [Compound 645, (2R,3S,4S,5R)-3-(3,4-difluoro-2-((3-fluorooxetan-3-yl)methoxy)phenyl)-N-(2-(hydroxymethyl)pyridin-4-yl)-4,5-dimethyl-5-(trifluoromethyl)tetrahydrofuran-2-carboxamide]
